Reference: patent US20140050779A1, “[…]-2 INHIBITORS AND USES THEREOF” (SINGAPORE HEALTH SERVICES PTE. LTD., priority 2011, published 2014)
Entries after “also recorded” stand apart in the source; their conditions may differ.

Experiments:
Type in all cases: cell-based
[1] = test system: human SF; assay: effect of TG-2 inhibitors on cultured scleral fibroblast growth (XCELLigence)
Description: (§1) To test the effect of TG-2 inhibitors on cultured scleral fibroblast growth, cultured SF cells at passage 4 were treated with TG-2 inhibitors at baseline, 0.1, 1, 10 and 100 μM for 5 days. The SF cell growth was monitored by XCELLigence cell impedance.

[2] = test system: mouse SF; assay: as above
Description: as §1

[3] = test system: cultured SF cells; assay: as above
Description: as §1

[4] = test system: TG-5; assay: Western blot of TG proteins in mouse scleral fibroblasts after muscarinic agents; details: 0.01-10 μM for 5 days
[5] = test system: TGase 2 (TGM-2) transcript; assay: qPCR of TGases mRNA in mouse scleral fibroblasts after muscarinic agents; details: 0.01-10 μM for 5 days, qPCR normalized to GAPDH
Description: (§2) P2 cultured mouse scleral fibroblasts were treated with atropine or carbachol at different concentrations of 0.01 μM, 0.1 μM, […], 5 μM and 10 μM for 5 days. Following 5 days of treatment, the total RNA was extracted from these cells and TGases transcript level was quantified via qPCR analysis. Height of bars show the means of three independent samples and error bars represent standard deviation. Values are normalized against GAPDH house keeping genes.
Murine scleral derived fibroblasts were cultured to passage 2 and treated to exogenous atropine or carbachol at 0.01 μM, 0.1 μM, 1 μM, 5 μM and 10 μM for 5 days. Following 5 days of treatment, the total RNA was extracted from these cells and RT-qPCR performed to determine transcript levels of TGM-2. The levels were normalized to GAPDH internal control. […] Height of bars or symbols represents mean and error bars SD. *: p<0.05 and **: p<0.001.
All cells used in examples described herein were between passages 2-4. Passaged cells were plated at a concentration of 2×10^5/mL into 6 well plates containing DMEM with 10% FBS. The cells were seen to attach to the bottom of the culture wells after 4 hours. […] The supernatant was poured into a new eppendorf tube and cell concentrations were determined using the Dc Protein assay Kit (Bio-Rad, MA). […] Cell lysate was collected for relative quantitative (q) PCR and protein analysis at day 5. […]

[6] = test system: TG-5; assay: Western blot of TG proteins in human scleral fibroblasts after muscarinic agents; details: 0.01-10 μM for 5 days
[7] = test system: TGase 1 transcript; assay: qPCR of TGases mRNA in mouse scleral fibroblasts after muscarinic agents; details: 0.01-10 μM for 5 days, qPCR normalized to GAPDH
Description: as §2
(§3) All cells used in examples described herein were between passages 2-4. Passaged cells were plated at a concentration of 2×10^5/mL into 6 well plates containing DMEM with 10% FBS. The cells were seen to attach to the bottom of the culture wells after 4 hours. Old media was removed from wells and 1 mL of drug was added with fresh full medium and incubated at 37° C. Fresh drugs were replaced daily consecutively for the next 5 days to avoid oxidation. The drugs/media was removed and wells were washed twice with 1×PBS. 200 μl of RIPA lysis buffer was added per well and incubated for 5 minutes and cells were scrapped into an eppendorf tube. The cells were stored at −20° C. until sonication. The cells were sonicated on ice thrice at 20% output power for 5 seconds each time and rested 1 minute in between each turn. Cell debris was spun down at 12000 rpm for 20 minutes. The supernatant was poured into a new eppendorf tube and cell concentrations were determined using the Dc Protein assay Kit (Bio-Rad, MA). Passaged cells were plated at a concentration of 1×10^5 into 6 well plates containing DMEM with 10% FBS. The cells were seen to attach to the bottom of the culture wells after 4 hours. Freshly prepared muscarinic agents' at base line, 0.1, 1, 10 and 100 μM concentrations were added for 5 days (Table 2). The culture medium was removed and fresh medium containing the same muscarinic drug added every day to avoid drug changes such as atropine oxidation. Cell lysate was collected for relative quantitative (q) PCR and protein analysis at day 5.
(§4) Total RNA was isolated from cultured human and mouse scleral fibroblasts using TRIzol reagent (Invitrogen life technologies, USA) in accordance with the manufacturer's instructions Chomczynski P, Sacchi N., “Single-step method of RNA isolation by acid guanidinium thiocyanate-phenol-chloroform extraction”, Anal. Biochem. 1987 April; 162(1):156-9. Genomic DNA was removed by digestion with DNase I (Amp Grade; Invitrogen-Gibco) for 15 minutes at room temperature. One microgram of total RNA was reverse-transcribed with random hexamers by using a first-strand cDNA synthesis kit (Invitrogen-Gibco). qPCR was performed in a 384-well plate format on an Roche 480 LightCycler Detection System (Roche Applied Science, Mannheim, Germany) with efficiency corrected software 4.0. PCR was performed using 50 ng of cDNA of each sample. The pre-validated hydrolysis probes for TG-2 were from human and mouse universal probe library (Roche, CA) and the primers for human and mouse are shown in Table 3. GAPDH Internal Standard (Roche) was used as an endogenous control. To standardize and evaluate scleral gene expression, aliquots of the same cDNA (50 ng) preparation were used as templates in all PCR reactions. The data was analyzed by comparative CT (MCT) method as previously described in Brink N, Szamel M, Young A R, Wittern K P, Bergemann J., “Comparative quantification of IL-1, IL-10, Il-10r, TNF and IL-7 mRNA levels in UV-irradiated human skin in vivo”, Inflamm Res. 2000 June; 49(6):290-6.

[8] = test system: TGase 5 transcript; assay: as above; details: 0.01-10 μM for 5 days, qPCR normalized to GAPDH
Description: as §2, §3, §4

[9] = test system: TGase-3 transcript; assay: as above; details: 0.01-10 μM for 5 days, qPCR normalized to GAPDH
Description: as §2, §3, §4

[10] = test system: TG-1; assay: Western blot of TG proteins in human scleral fibroblasts after muscarinic agents; details: 0.01-10 μM for 5 days
[11] = test system: TG-2; assay: Western blot of TG proteins in mouse scleral fibroblasts after muscarinic agents; details: 0.01-10 μM for 5 days, Western blot
Description: as §3
(§5) The cells were lysed by sonification in 1×RIPA lysis buffer (santa cruz biotechnology, Sc-24948) with 10 μl PMSF solution, 10 μl sodium orthovanadate solution and 20 μl protease inhibitor cocktail solution. After centrifugation at 20,000×g at 4° C. for 20 minutes, and the supernatant collected. The protein content in the supernatants was measured using the DC Protein Assay kit (Bio-Rad, MA) following the manufacturer's instructions. Samples were stored at −80° C. until assayed.
(§6) The mouse and human scleral fibroblasts were treated with atropine or carbachol at 0.01, 0.1, 1, 5 and 10 μM concentrations for 5 days. Following 5 days of treatment, the total cellular protein was extracted from these cells and TG proteins detected via Western blot analysis.
(§7) Human and, mouse scleral fibroblast proteins in the supernatant were separated by SDS-PAGE, transferred to nitrocellulose membranes, blocked in 5% BSA in TBST (10 mM Tris-HCl [pH 8.0], 150 mM NaCl, and […] Tween-20) for 2 hours at room temperature, and incubated with the same anti-TG-2 antibody described herein at a dilution of 1:1000 and anti β-tubulin antibodies used as a positive control, for 1 hour at room temperature. The membranes were washed 3 times in TBST and incubated with HRP-conjugated secondary antibody (Chemicon International) at a dilution of 1:2500 for 1 hour at room temperature. Immunoreactive bands were visualized using the enhanced chemiluminescence method (GE Healthcare, Buckinghamshire, UK). The membrane was wrapped in plastic and placed against an X-ray film to expose for an appropriate length of time (30 seconds-5 minutes).

[12] = test system: TG-3; assay: as above; details: 0.01-10 μM for 5 days
Description: as §3, §5, §6, §7

[13] = test system: TG-1; assay: as above; details: 0.01-10 μM for 5 days
Description: as §3, §5, §6, §7

[14] = test system: TG-3; assay: Western blot of TG proteins in human scleral fibroblasts after muscarinic agents; details: 0.01-10 μM for 5 days
[15] = test system: TG-2; assay: TG-2 colorimetric microassay (transamidase activity) in lysate of treated mouse scleral fibroblasts; details: murine scleral derived fibroblasts, 0.01-10 μM for 5 days

`CN(C)c1cccc2c(S(=O)(=O)NCCCCCN)cccc12` [MDC, Monodansyl caderverine] was tested, and the “concentration at which effective on SF cell growth” value [1] was 10 µM, the “concentration at which effective on SF cell growth” value [2] was 50 µM and the “effect of the higher concentrations on SF cells” value [3] was “cell death and morphological change”.

With `C[N+](C)(C)CCOC(N)=O` [carbachol] the TG-5 protein level [4] was “the converse was true; also recorded: increased”, the “TGase 2 (TGM-2) transcript level” value [5] was “opposite effect; also recorded: opposite findings” and the TG-5 protein level [6] was “the converse was true; also recorded: increased”. For the same molecule, the “TGase 1 transcript level” value [7] was “increased only by relatively higher concentrations”, the “TGase 5 transcript level” value [8] was “increased only by relatively higher concentrations” and the TGase-3 transcript level [9] was “opposite findings”. The TG-1 protein level [10] was “the converse was true; also recorded: increased”, the TG-2 protein level [11] was “increased; also recorded: opposite effect” and the TG-3 protein level [12] was “the converse observed; also recorded: decreased”. For the same molecule, the TG-1 protein level [13] was “the converse was true; also recorded: increased”, the TG-3 protein level [14] was “the converse observed; also recorded: decreased” and the “transamidase (cross-linking) activity of TG-2” value [15] was “opposite effects”.
